Target: T1, KRAS G12D (Homo sapiens, UniProt P01116, G12D)
T1 construct: host or cells: AsPC-1 human pancreatic cancer cells
Test: Test Example 1-2: KRAS degradation action in AsPC-1, Cell ELISA
Type: cell-based
Details: AsPC-1 cells, overnight treatment, corrected with β-actin, 0% = 10 μM Example No. 26 (Example No. 8 for Example Nos. 74 and 75)
Description: Test Example 1-2: Evaluation of KRAS Degradation Action on Human G12D Mutant KRAS-Positive Pancreatic Cancer Line AsPC-1
The KRAS degradation action of test compounds was evaluated by measuring the expression levels of KRAS G12D by Cell ELISA.
[…] As for the cell culture conditions, a RPMI 1640 medium containing 10% fetal bovine serum was used in the presence of 5% CO2 at 37° C. The next day, the test compounds (10 points having final concentrations in the range of 10 μM to 0.3 nM), the compound of Example No. 26 (Example No. 8 for Example Nos. 74 and 75) of a final concentration of 10 μM as a positive control and DMSO, which was the solvent for the test compounds, as a negative control were diluted 500-fold with a fresh medium and were added at 20 μL per well. The cells were cultured overnight.
The next day, the culture supernatant was removed, and 4% paraformaldehyde phosphate buffer (from FUJIFILM Wako Pure Chemical Corporation) was added at 20 μL per well. The plate was allowed to stand for 30 minutes at room temperature to thus immobilize the cells. Then, the supernatant was removed, and 0.1% Triton X-100 (from Amersham Biosciences)-containing PBS was added at 20 μL per well. After allowing to stand for 10 minutes at room temperature, the supernatant was removed. PBS was added at 25 μL per well, and the supernatant was removed to thus wash each well. The washing was performed twice in total. Next, the supernatant was removed, and 0.5% sodium dodecyl sulfate (SDS; from Invitrogen)-containing PBS was added at 20 μL per well. After allowing to stand at room temperature for 10 minutes, the supernatant was removed by centrifugation (using a centrifugal dehydrator machine, the supernatant was removed by the same method hereinafter). PBS was added at 25 μL per well, and the supernatant was removed to thus wash each well. The washing was performed twice in total. The supernatant was removed by centrifugation, and a blocking solution (Intercept Blocking Buffer) was added at 20 μL per well. After allowing to stand for 30 minutes at room temperature, the supernatant was removed by centrifugation, and a solution obtained by diluting an anti-Ras (G12D Mutant Specific) antibody and an anti-3-actin antibody 1,000-fold with a blocking solution was added at 20 μL per well as a primary antibody. The plate was allowed to stand overnight at 4° C.
The next day, the plate was centrifuged to remove the supernatant. PBS was added at […], and the supernatant was removed to thus wash each well. The washing was performed twice in total. The supernatant was removed by centrifugation, and a solution obtained by diluting Donkey anti-Mouse IgG H&L (TRDye 680RD) (from Li—COR Biosciences) and Goat anti-Rabbit IgG H&L (IRDye 800CW) (from Li—COR Biosciences) 1,000-fold with a blocking solution was added at 20 μL per well as a secondary antibody. After allowing to stand for 1 hour at room temperature, the supernatant was removed. PBS was added at 25 μL per well, and the supernatant was removed to thus wash each well. The washing was performed twice in total. After removing the supernatant by centrifuging the plate, the plate was dried as it was with air at room temperature for 2 hours or more, and the 700-nm and 800-nm fluorescent signals were measured with Aerius (from LI-COR Biosciences).
With the signaling value at the time of addition of DMSO corrected with the signaling value of β-actin taken as 100% and with the signaling value at the time of addition of 10 μM of the compound of Example No. 26 taken as 0%, the 50% degradation values (DC50) of the amounts of KRAS were calculated by Sigmoid-Emax model nonlinear regression analysis. The molecular weights of the test compounds were calculated as the molecular weights of the trihydrochloride for Example No. 30, the tetrahydrochloride for Example No. 46 and the free forms forming no salt for the remaining Example Nos. The results for some test compounds of the formula (I) are shown in Table 2.

T1 sequence (P01116 1-188 isoform P01116-2 G12D): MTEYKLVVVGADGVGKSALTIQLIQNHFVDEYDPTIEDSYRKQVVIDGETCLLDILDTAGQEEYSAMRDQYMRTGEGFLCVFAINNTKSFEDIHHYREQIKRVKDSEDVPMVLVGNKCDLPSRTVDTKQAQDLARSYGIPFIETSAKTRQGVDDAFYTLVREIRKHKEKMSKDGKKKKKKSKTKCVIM

Row | DC50 | SMILES
1 | 1 µM | Cc1ncsc1-c1ccc([C@H](CO)NC(=O)[C@@H]2C[C@@H](O)CN2C(=O)[C@@H](NC(=O)CCN(C)C(=O)c2ccc(COc3c(-c4c(C)c(F)cc5[nH]ncc45)c(C4CC4)cc4c(N5C[C@@H]6C[C@H]5CN6)nc(OC5CCOCC5)nc34)cc2)C(C)C)cc1 [Example 74]
2 | 5.89 µM | Cc1ncsc1-c1ccc([C@H](CO)NC(=O)[C@@H]2C[C@@H](O)CN2C(=O)[C@@H](NC(=O)C[C@@H]2CCN(C(=O)c3ccc(COc4c(-c5c(C)c(F)cc6[nH]ncc56)c(C5CC5)cc5c(N6C[C@@H]7C[C@H]6CN7)nc(OC6CCOCC6)nc45)cc3)C2)C(C)C)cc1 [Example 75]
